The text below walks through data of patent US20240026278A1, “BLOOD CELL LYSING AGENT FOR ISOLATING BACTERIA FROM BLOOD CULTURE” (Becton, Dickinson and Company, priority 2020, published 2024).

The experiment has as its system blood cells. In words: Lysis of blood cells by the lysing agent. The format is cell-based. As to conditions: in lysing buffer. The text has this: Currently available methods employ saponin to lyse blood cells for isolating bacteria from positive blood cultures. […] It is probable that this identification failure is due to the blood cells not being completely lysed and/or a high content of blood debris. […] In some embodiments, SDA is very water soluble. An advantage of using SDA as the lysing agent for isolating bacteria from positive blood culture is that the MALDI score for challenging species such as Staphylococcus epidermidis can be higher than the cutoff value, leading to correct species identification. Moreover, processing times using SDA versus saponin can be nearly identical.
FIG. 1 depicts exemplary data related to MALDI scores for Staphylococcus epidermidis isolated from positive blood cultures using different lysing agents, namely saponin (SAP), Nonoxynol-9 (Somatic Cell Digestion Agent (SDA)), and a combination thereof. The concentration of each lysing agent was used at 0.52% (w/w). The score for acceptance of identification is greater than or equal to 1.8 for the Sepsityper database and 2.0 for the standard database. […] SDA is generally used as a spermicide by interacting with the lipids in the membranes of the acrosome and the midpiece of the sperm.

Regarding Nonoxynol-9 [SDA], the blood cell lysis entry is recorded as “lyse blood cells very efficiently”.
